{
  "source": "EPA's ToxValDB 9.5 (doi:10.2903/j.efsa.2007.117r)",
  "key": {"Tagia sp.": {"system": "Tagia sp.", "details": "acute; duration: 14 days; mortality"}, "Canidae": {"system": "Canidae", "details": "subchronic; duration: 90 days; oral; Dog Other"}, "Aphidius rhopalosiphi": {"system": "Aphidius rhopalosiphi", "details": "chronic/long-term; mortality"}, "Oryctolagus sp.": {"system": "Oryctolagus sp.", "details": "reproduction developmental; reproduction"}, "Daphnia magna": {"system": "Daphnia magna", "details": "chronic/long-term; duration: 21 days; reproduction"}, "Apis mellifera": {"system": "Apis mellifera", "details": "acute; duration: 48 hours; oral; unspecified; mortality"}, "Bibionidae": {"system": "Bibionidae", "details": "chronic/long-term; duration: 24 days; reproduction"}, "Bird": {"system": "Bird", "details": "for LD50: oral, mortality"}},
  "data": [
    {"compound": "NC1=C(Cl)C(=O)c2ccccc2C1=O", "note": "[2-Amino-3-chloro-1,4-naphthoquinone]", "values": [
      {"measurement": "LC50", "setting": "Tagia sp.", "value": 125, "unit": "mg/kg"},
      {"measurement": "NOAEL", "setting": "Canidae", "value": 3, "unit": "mg/kg-day"},
      {"measurement": "LEL", "setting": "Aphidius rhopalosiphi", "value": 3810, "unit": "g/ha"},
      {"measurement": "NOAEL", "setting": "Oryctolagus sp.", "value": 17.5, "unit": "mg/kg-day"},
      {"measurement": "LD50", "setting": "Rattus norvegicus; acute, oral, mortality", "value": 500, "unit": "mg/kg-day"},
      {"measurement": "NOAEL", "setting": "Rattus norvegicus; chronic, duration: 2 years, organ weight", "value": 0.21, "unit": "mg/kg-day"},
      {"measurement": "NOAEL", "setting": "Rattus norvegicus; reproduction developmental, body weight", "value": 5, "unit": "mg/kg-day"},
      {"measurement": "NOEC", "setting": "Daphnia magna", "value": 0.0021, "unit": "mg/L"},
      {"measurement": "LD50", "setting": "Apis mellifera", "value": "> 28", "unit": "µg/piece"},
      {"measurement": "NOEC", "setting": "Bibionidae", "value": 0.063, "unit": "mg/L"},
      {"measurement": "LC50", "setting": "Oncorhynchus mykiss; acute, duration: 96 hours, mortality", "value": 0.063, "unit": "µg/mL"},
      {"measurement": "NOEC", "setting": "Oncorhynchus mykiss; chronic/long-term, duration: 21 days, behavior", "value": 0.02, "unit": "mg/L"},
      {"measurement": "LD50", "setting": "Bird; acute, unspecified", "value": "> 2000", "unit": "mg/kg-day"},
      {"measurement": "NOAEL", "setting": "Bird; chronic/long-term", "value": 36.2, "unit": "mg/kg-day"},
      {"measurement": "LD50", "setting": "Bird; short-term, feed", "value": 394, "unit": "mg/kg-day"}
    ]}
  ]
}
